Assay results published in patent US12653827B2, “Methods of treating indolent systemic mastocytosis” (Telios Pharma Inc., priority 2024, dated 2026).

Key:
basophils = experiment: BAT (CD63) on blood of dosed ISM patients; assay type: in vivo, human
Description: The BAT was conducted as set forth in Santos (2021) Allergy, 76:2420-2432. Blood from six healthy donors was drawn and Compound 128 was added at various concentrations (10 μM, 3.16 μM, 1 μM, 0.3 μM, 0.1 μM, 0.03 μM, or 0 μM). Blood samples were gently rocked at room temperature for 2 hours, 24 hours, or 48 hours. The BAT assay using the Flow Cast Basophil Activation Kit (Buhlmann Diagnostics; Catalog #B-CCR-STCON) was then conducted following manufacturer instructions by (1) stimulating the blood with anti-FcεR stimulation control in stimulation buffer with IL-3 and staining cells for CCR3 and CD63 for 15 minutes at 37° C., (2) lysing red blood cells and fixing cells with Lysing Reagent at room temperature for 10 minutes, (3) washing cells with Wash Buffer, and (4) acquiring data on a flow cytometer. Activated basophils were defined as CCR3+, low side scatter and CD63+. Percent of activated basophils was calculated as number of activated basophils over the total number of basophils. A four-parameter logistic regression was applied to determine the EC50 and EC90. […]
The BAT assay measuring CD63 used the Flow Cast Basophil Activation Kit method and percent activated basophils were calculated as described in Example 1. Percent inhibition of CD63 activation was calculated as (100−(Sample condition−Unstimulated DMSO control)/(Stimulated DMSO control−Unstimulated DMSO control)×100).

mast cells [1] = experiment: Potency across healthy and ISM mast cells (FIG. 16); assay type: cell-based; conditions: presence of SCF; CD63, CD203, pBTK, histamine, calcium flux
Description: Healthy BM-MC donor 0166 and ISM WB-MC 1061-004 17 Jan. 2024 and 17 Oct. 2024. Experiments performed in the presence of SCF. Sensitization and Stimulation: NP-IgE (100 ng/mL) 18 hrs, NP-BSA (0.5 ng/mL) for 15 min at 37° C. (CD63, CD203, pBTK and histamine) or 4 min at RT (Calcium Flux).

mast cells [2] = experiment: Phosphorylation and degranulation markers in antigen-stimulated mast cells grown with chronic SCF (FIG. 21); assay type: cell-based; conditions: 0.1-0.6 μM, antigen 15 minutes
Description: Histamine release, CD63 expression, CD203c expression, pBTK (Y223) levels, pP38 (T180/Y182) levels, pPLCg1 (S1248) levels, pERK (T202/Y204) levels, and pS6 (S235/236) levels are shown. Mast cells were grown with continuous (chronic) exposure to SCF and then stimulated with antigen (Ag) for 15 minutes, leading to phosphorylation of multiple kinases, including pBTK, pPLCγ1, pP38, pERK, and pS6 ribosome. This stimulation increases degranulation markers, including CD63, CD203c, and histamine release.

human mast cells = experiment: Antigen-induced degranulation (CD63 and histamine) in ISM-like human mast cells; assay type: cell-based; conditions: six healthy donors, treated two hours
Description: Human mast cells were derived from bone marrow CD34+ cells from six healthy donors for up to eight weeks by culturing CD34+ cells in StemSpan SFEM II (Stem Cell Technologies) supplemented with stem cell factor (SCF; 100 ng/mL; R&D System), IL-6 (R&D Systems), IL-3 (R&D Systems) and 1% penicillin/streptomycin (P/S; Gibco) for the first 10 days and in StemSpan SFEM II supplemented with SCF and IL-6 and 1% P/S for the remaining time in culture. […] Supernatant was collected and histamine levels were measured using a Histamine ELISA kit (Eagle Biosciences). […] Percent of activated mast cells was calculated as number of activated mast cells over the total number of mast cells.
Human mast cells were differentiated from bone marrow CD34+ cells from six healthy donors, cultured and sensitized as set forth in Example 4. […] The median fluorescence intensity of phosphorylated BTK was measured. CD63 and histamine levels in these cells were measured and percent activated mast cells were calculated as set forth in Example 4. The percent of stimulated control for pBTK, activated mast cells (CD63+) and histamine levels was calculated. […]

C=CC(=O)N1CCC(F)(CNc2ncnc(N)c2-c2ccc(Oc3ccccc3)cc2)CC1 [Compound 128, 1-(4-(((6-amino-5-(4-phenoxyphenyl)pyrimidin-4-yl)amino)methyl)-4-fluoropiperidin-1-yl)prop-2-en-1-one]
inhibition of basophil activation (basophils; ISM patients, 100 mg or 150 mg BID): effective in inhibiting basophil activation
percent inhibition of CD63 activation of basophils, dose dependence (basophils; ISM patients, 50, 75, 100 or 150 mg BID): greater inhibition of basophil activation is achieved in ISM patients with greater dosing
potency across healthy mast cells and ISM mast cells (mast cells [1]): equipotent
phosphorylation (pBTK, pPLCγ1, pP38, pERK, pS6) and degranulation (CD63, CD203c, histamine) (mast cells [2]): decrease to near basal levels
inhibition of IgE-mediated degranulation (CD63 and histamine) (human mast cells): potently inhibits
